According to patent US7829568B2, “Substituted 5,6,7,8-tetrahydroimidazo[1,2-a]pyridin-2-ylamine compounds and their use for producing drugs” (Gruenenthal GmbH, priority 2005, dated 2010):

Target: T1, human μ-opioid receptor (Homo sapiens, UniProt P35372)
T1 construct: purchased NEN, Zaventem, Belgium RB-HOM; host or cells: CHO-K1 cells (membrane preparation)
Test: Affinity to the human μ-opioid receptor ([3H]-naloxone displacement, SPA)
Format: binding
Details: compound 1 μmol/l, 1 nmol/l [3H]-naloxone, CHO-K1 membrane preparation; for inhibition at 1 µM: read-out: μ-opioid receptor (man) (% inhibition)
Method: III. Method for Determining the Affinity to the Human μ-Opioid Receptor
The receptor affinity to the human μ-opioid receptor is determined in a homogeneous batch in microtitre plates. In this case, dilution series of the respective substituted 5,6,7,8-tetrahydro-imidazo[1,2-a]pyridin-2-ylamine compound of the general formula I to be tested are incubated with a receptor membrane preparation (15-40 μg of protein per 250 μl of the incubation batch) of CHO-K1 cells which express the human μ-opioid receptor (μ-opiate receptor) (RB-HOM receptor membrane preparation from NEN, Zaventem, Belgium) in the presence of 1 nmol/l of the radioactive ligands [^3H]-naloxone (NET719, NEN, Zaventem, Belgium) and also 1 mg of WGA SPA beads (wheat germ agglutinin SPA beads from Amersham Pharmacia, Freiburg, Germany) in a total volume of 250 μl at room temperature for 90 minutes. 50 mmol/l tris-HCl are used as an incubation buffer with 0.05% by weight of sodium azide and 0.06% by weight of bovine serum albumin. 25 μmol/l naloxone are also added to determine the non-specific bond. At the end of the 90 minute incubation period, the microtitre plates are centrifuged off for 20 minutes at 1000 g and the radioactivity is measured with a β-counter (Microbeta-Trilux, PerkinElmer Wallac, Freiburg, Germany. The percentage of displacement of the radioactive ligand from its bond to the human μ-opiate receptor at a concentration of 1 μmol/l of the compound to be tested is determined and indicated as a % inhibition of the specific bond.

T1 sequence (P35372 whole entry): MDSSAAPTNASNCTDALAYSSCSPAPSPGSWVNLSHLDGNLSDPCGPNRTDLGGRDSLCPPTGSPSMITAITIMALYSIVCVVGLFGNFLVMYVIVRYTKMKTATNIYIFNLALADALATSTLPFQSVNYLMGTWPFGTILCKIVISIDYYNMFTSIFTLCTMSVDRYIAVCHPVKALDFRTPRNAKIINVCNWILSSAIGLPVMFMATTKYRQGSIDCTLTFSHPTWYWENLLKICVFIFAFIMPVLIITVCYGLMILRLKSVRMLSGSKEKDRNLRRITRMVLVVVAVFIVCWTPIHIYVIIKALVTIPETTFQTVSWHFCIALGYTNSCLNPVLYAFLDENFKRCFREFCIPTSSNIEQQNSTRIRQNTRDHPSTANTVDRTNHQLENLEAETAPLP

Compound | inhibition at 1 µM | μ-opioid receptor (man) (% inhibition)
CN(C(=O)c1cccc2ccccc12)c1nc2n(c1C(=O)NCc1cc(C(F)(F)F)cc(C(F)(F)F)c1)CCCC2 [Example 15, 2-[Methyl-(naphthalene-1-carbonyl)-amino]-5,6,7,8-tetrahydro-imidazo[1,2-a]pyridine-3-carboxylic acid 3,5-bis-trifluoromethyl-benzylamide] | 35% | –
CCCCN(C(=O)c1cccc(Cl)c1)c1nc2n(c1C(=O)NCCSCc1c(Cl)cccc1Cl)CCCC2 [Example 95, 2-[butyl-(3-chloro-benzoyl)-amino]-5,6,7,8-tetrahydro-imidazo[1,2-a]pyridine-3-carboxylic acid [2-(2,6-dichlor-benzylsulphanyl)-ethyl]-amide] | – | 53%
CN(C(=O)c1cccc(Cl)c1)c1nc2n(c1C(=O)N1CCN(CCc3ccccc3)CC1)CCCC2 [Example 106, 3-chloro-N-methyl-N-[3-(4-phenethyl-piperazine-1-carbonyl)-5,6,7,8-tetrahydro-imidazo[1,2-a]pyridin-2-yl]-benzamide] | 30% | –
CC(CCc1ccccc1)NC(=O)c1c(N(C)C(=O)c2cccc3ccccc23)nc2n1CCCC2 (centres unmarked) [Example 112, 2-[methyl-(naphthalene-1-carbonyl)-amino]-5,6,7,8-tetrahydro-imidazo[1,2-a]pyridine-3-carboxylic acid (1-methyl-3-phenyl-propyl)-amide] | 51% | –
CCCCN(C(=O)c1ccc(F)c(F)c1)c1nc2n(c1C(=O)NCCC(c1ccccc1)c1ccccc1)CCCC2 [Example 180, 2-[butyl-(3,4-difluoro-benzoyl)-amino]-5,6,7,8-tetrahydro-imidazo[1,2-a]pyridine-3-carboxylic acid (3,3-diphenyl-propyl)-amide] | 47% | –
CCCCN(C(=O)c1cccc(Cl)c1)c1nc2n(c1C(=O)Nc1ccc3c(c1)OCCO3)CCCC2 [Example 181, 2-[butyl-(3-chloro-benzoyl)-amino]-5,6,7,8-tetrahydro-imidazo[1,2-a]pyridine-3-carboxylic acid (2,3-dihydro-benzo[1,4]dioxin-6-yl)-amide] | 58% | –
CN(C(=O)Cc1ccccc1)c1nc2n(c1C(=O)N1CCN(c3ccccc3)CC1)CCCC2 [Example 186, N-methyl-2-phenyl-N-[3-(4-phenyl-piperazine-1-carbonyl)-5,6,7,8-tetrahydro-imidazo[1,2-a]pyridin-2-yl]-acetamide] | 48% | –
Cc1cc(Cl)cc(Cl)c1CNC(=O)c1c(N(C)C(=O)c2ccccc2)nc2n1CCCC2 [Example 188, 2-(benzoyl-methyl-amino)-5,6,7,8-tetrahydro-imidazo[1,2-a]pyridine-3-carboxylic acid 2,4-dichloro-6-methyl-benzylamide] | 59% | –
